Results published in PubChem BioAssay (NCI).
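Cultured in 96-well plates, cells were exposed to test compound for 48 hours across five concentrations. GI50 marks 50% less growth. TGI: concentration producing complete growth inhibition.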

What was measured:
Assay in all cases: DTP human tumour cell line panel, 48 h
[1] = system: HS 578T breast
[2] = system: EKVX NSCLC
[3] = system: HCT-15 colon
[4] = system: MOLT-4 leukemia
[5] = system: SK-MEL-28 melanoma
[6] = system: M14 melanoma
[7] = system: KM12 colon
[8] = system: OVCAR-5 ovarian
[9] = system: A549 NSCLC
[10] = system: MDA-MB-435
[11] = system: IGROV1 ovarian
[12] = system: NCI-H226 lung
[13] = system: SR leukemia
[14] = system: COLO 205 colon
[15] = system: OVCAR-8 ovarian
[16] = system: NCI-H460 lung
[17] = system: SK-OV-3 ovarian
[18] = system: HCC-2998 colon
[19] = system: NCI/ADR-RES ovarian
[20] = system: UO-31 renal
[21] = system: DU-145 prostate
[22] = system: PC-3 prostate
[23] = system: SNB-75 CNS
[24] = system: MCF7 breast
[25] = system: HT29 colon
[26] = system: SW-620 colon
[27] = system: OVCAR-4 ovarian
[28] = system: SF-539 CNS
[29] = system: 786-0 renal
[30] = system: MDA-MB-231 breast
[31] = system: NCI-H522 lung
[32] = system: RXF 393 renal
[33] = system: NCI-H23 lung
[34] = system: LOX IMVI melanoma
[35] = system: K-562 leukemia
[36] = system: SF-268 CNS
[37] = system: UACC-257 melanoma
[38] = system: CCRF-CEM leukemia
[39] = system: HOP-92 NSCLC
[40] = system: SF-295 CNS
[41] = system: CAKI-1 renal
[42] = system: SN12C renal
[43] = system: SK-MEL-2 melanoma
[44] = system: A498 renal
[45] = system: SK-MEL-5 melanoma
[46] = system: MALME-3M melanoma
[47] = system: TK-10 renal
[48] = system: ACHN renal
[49] = system: HL-60(TB) leukemia
[50] = system: UACC-62 melanoma
[51] = system: BT-549 breast
[52] = system: T-47D breast
[53] = system: RPMI-8226 leukemia
[54] = system: OVCAR-3 ovarian
[55] = system: U251 CNS
[56] = system: HOP-62 NSCLC
[57] = system: SNB-19 CNS
[58] = system: HCT-116 colon
[59] = system: MDA-N

SMILES: Oc1c(CN2CCCC2)cc(COCc2ccccc2)c2cccnc12
- GI50 [1]: 8.71 µM
- TGI [1]: 58.7 µM
- GI50 [2]: 2.01 µM
- TGI [2]: 15.6 µM
- GI50 [3]: 0.152 µM
- TGI [3]: 2.9 µM
- GI50 [4]: 2.96 µM
- TGI [4]: 11.4 µM
- GI50 [5]: 3.49 µM
- TGI [5]: 18.6 µM
- GI50 [6]: 1.11 µM
- TGI [6]: 10.1 µM
- GI50 [7]: 2.14 µM
- TGI [7]: 18.2 µM
- GI50 [8]: 4.1 µM
- TGI [8]: 21.2 µM
- GI50 [9]: 3.35 µM
- TGI [9]: 14.1 µM
- GI50 [10]: 4.43 µM
- TGI [10]: 26.3 µM
- GI50 [11]: 3.54 µM
- TGI [11]: 13.8 µM
- GI50 [12]: 2.69 µM
- TGI [12]: 12 µM
- GI50 [13]: 1.83 µM
- TGI [13]: 16.9 µM
- GI50 [14]: 10.4 µM
- TGI [14]: 26.6 µM
- GI50 [15]: 2.53 µM
- TGI [15]: 12 µM
- GI50 [16]: 0.774 µM
- TGI [16]: 11.8 µM
- GI50 [17]: 2.02 µM
- TGI [17]: 9.27 µM
- GI50 [18]: 3.72 µM
- TGI [18]: 16.5 µM
- GI50 [19]: 0.152 µM
- TGI [19]: 0.761 µM
- GI50 [20]: 0.158 µM
- TGI [20]: 2.55 µM
- GI50 [21]: 3.4 µM
- TGI [21]: 16.8 µM
- GI50 [22]: 2.73 µM
- TGI [22]: 23.3 µM
- GI50 [23]: 2.79 µM
- TGI [23]: 28.6 µM
- GI50 [24]: 2.82 µM
- TGI [24]: 13.3 µM
- GI50 [25]: 10.4 µM
- TGI [25]: 26.5 µM
- GI50 [26]: 3.27 µM
- TGI [26]: 18.2 µM
- GI50 [27]: 0.903 µM
- TGI [27]: 13.6 µM
- GI50 [28]: 2.89 µM
- TGI [28]: 10.1 µM
- GI50 [29]: 2.22 µM
- TGI [29]: 8.52 µM
- GI50 [30]: 4.98 µM
- TGI [30]: 20.1 µM
- GI50 [31]: 2.62 µM
- TGI [31]: 9.97 µM
- GI50 [32]: 2.11 µM
- TGI [32]: 8.29 µM
- GI50 [33]: 2.89 µM
- TGI [33]: 11.6 µM
- GI50 [34]: 0.798 µM
- TGI [34]: 5.61 µM
- GI50 [35]: 2.62 µM
- TGI [35]: 20.7 µM
- GI50 [36]: 1.99 µM
- TGI [36]: 18.5 µM
- GI50 [37]: 2.84 µM
- TGI [37]: 8.25 µM
- GI50 [38]: 1.43 µM
- TGI [38]: 15.4 µM
- GI50 [39]: 7.15 µM
- TGI [39]: 26.6 µM
- GI50 [40]: 2.86 µM
- TGI [40]: 13.7 µM
- GI50 [41]: 0.26 µM
- TGI [41]: 14.2 µM
- GI50 [42]: 4.04 µM
- TGI [42]: 20.8 µM
- GI50 [43]: 4.68 µM
- TGI [43]: 20.1 µM
- GI50 [44]: 3.82 µM
- TGI [44]: 15 µM
- GI50 [45]: 1.12 µM
- TGI [45]: 4.76 µM
- GI50 [46]: 3.35 µM
- TGI [46]: 14.4 µM
- GI50 [47]: 1.84 µM
- TGI [47]: 22.3 µM
- GI50 [48]: 0.358 µM
- TGI [48]: 10.2 µM
- GI50 [49]: 2.52 µM
- TGI [49]: 8.95 µM
- GI50 [50]: 1.81 µM
- TGI [50]: 7.7 µM
- GI50 [51]: 3.52 µM
- TGI [51]: 18.1 µM
- GI50 [52]: 2.97 µM
- TGI [52]: 15.4 µM
- GI50 [53]: 3.84 µM
- TGI [53]: 19.4 µM
- GI50 [54]: 2.13 µM
- TGI [54]: 13.3 µM
- GI50 [55]: 2.07 µM
- TGI [55]: 13.3 µM
- GI50 [56]: 1.65 µM
- TGI [56]: 9.5 µM
- GI50 [57]: 3.53 µM
- TGI [57]: 92.4 µM
- GI50 [58]: 2.65 µM
- TGI [58]: 11 µM

SMILES: CC(C)(C)C=C=C(C(C)(C)C)P(=O)(O)O
- TGI [1]: > 100 µM
- TGI [2]: > 100 µM
- TGI [3]: > 100 µM
- TGI [5]: > 100 µM
- TGI [6]: > 100 µM
- TGI [7]: > 100 µM
- TGI [8]: > 100 µM
- TGI [9]: > 100 µM
- TGI [10]: > 100 µM
- TGI [11]: > 100 µM
- TGI [12]: > 100 µM
- TGI [13]: > 100 µM
- TGI [14]: > 100 µM
- TGI [15]: > 100 µM
- TGI [16]: > 100 µM
- TGI [17]: > 100 µM
- TGI [18]: > 100 µM
- TGI [19]: > 100 µM
- TGI [21]: > 100 µM
- TGI [22]: > 100 µM
- TGI [23]: > 100 µM
- TGI [25]: > 100 µM
- TGI [26]: > 100 µM
- TGI [27]: > 100 µM
- TGI [28]: > 100 µM
- TGI [29]: > 100 µM
- TGI [31]: > 100 µM
- TGI [32]: > 100 µM
- TGI [33]: > 100 µM
- TGI [34]: > 100 µM
- TGI [35]: > 100 µM
- TGI [36]: > 100 µM
- TGI [37]: > 100 µM
- TGI [39]: > 100 µM
- TGI [40]: > 100 µM
- TGI [41]: > 100 µM
- TGI [42]: > 100 µM
- TGI [43]: > 100 µM
- TGI [44]: > 100 µM
- TGI [45]: > 100 µM
- TGI [46]: > 100 µM
- TGI [47]: > 100 µM
- TGI [48]: > 100 µM
- TGI [49]: > 100 µM
- TGI [50]: > 100 µM
- TGI [52]: > 100 µM
- TGI [53]: > 100 µM
- TGI [54]: > 100 µM
- TGI [59]: > 100 µM
- TGI [55]: > 100 µM
- TGI [56]: > 100 µM
- TGI [57]: > 100 µM
- TGI [58]: > 100 µM

SMILES: O=C(/C=C/c1ccc(Cl)c(Cl)c1)Oc1ccc(/C=C2\CCCCC2=O)cc1
- TGI [1]: > 100 µM
- TGI [2]: > 100 µM
- TGI [3]: > 100 µM
- TGI [4]: 72.1 µM
- TGI [5]: > 100 µM
- TGI [6]: > 100 µM
- TGI [7]: > 100 µM
- TGI [8]: > 100 µM
- TGI [9]: > 100 µM
- TGI [10]: > 100 µM
- TGI [11]: > 100 µM
- TGI [13]: > 100 µM
- TGI [14]: > 100 µM
- TGI [15]: > 100 µM
- TGI [16]: > 100 µM
- TGI [18]: > 100 µM
- TGI [19]: > 100 µM
- TGI [20]: > 100 µM
- TGI [21]: > 100 µM
- TGI [22]: > 100 µM
- TGI [23]: > 100 µM
- TGI [24]: > 100 µM
- TGI [25]: > 100 µM
- TGI [26]: > 100 µM
- TGI [27]: > 100 µM
- TGI [28]: > 100 µM
- TGI [29]: > 100 µM
- TGI [30]: > 100 µM
- TGI [31]: > 100 µM
- TGI [33]: > 100 µM
- TGI [34]: > 100 µM
- TGI [36]: > 100 µM
- TGI [37]: > 100 µM
- TGI [38]: > 100 µM
- TGI [39]: > 100 µM
- TGI [40]: > 100 µM
- TGI [41]: > 100 µM
- TGI [42]: > 100 µM
- TGI [43]: > 100 µM
- TGI [44]: > 100 µM
- TGI [45]: > 100 µM
- TGI [47]: > 100 µM
- TGI [48]: > 100 µM
- TGI [49]: > 100 µM
- TGI [50]: > 100 µM
- TGI [52]: > 100 µM
- TGI [53]: > 100 µM
- TGI [54]: > 100 µM
- TGI [59]: > 100 µM
- TGI [55]: > 100 µM
- TGI [56]: > 100 µM
- TGI [57]: > 100 µM
- TGI [58]: > 100 µM
